Measurements taken from a melting point compilation (Tetko et al.; mined from patent text by program, amines drawn as free bases though some values may be those of a salt).

melting point	SMILES
138 to 140 °C	Cc1ccn(-c2ccc(C)c(C(=O)c3cccc4c3Nc3ncccc3CN4)c2)n1
59 to 60 °C	O=C(Oc1ccccc1)[C@H]1O[C@@H]1C1CCCCC1
> 250 °C	N#CC1=C(C2CC2)Nc2n[nH]cc2C1c1ccccc1Cl (configuration not stated)
155 to 181 °C	Cc1cc(-c2c3ccccc3c(C)c3sc4ccccc4c23)cc(C)c1OCC(=O)O
123 to 124 °C	CCOC(=O)C1=CCCCC1S(=O)(=O)Nn1c(Br)ccc1Br (configuration not stated)
77 °C	CN(CCO)C(=O)Cc1ccccc1Cl
85 to 92 °C	Clc1cccc2c1C1(CO1)c1ccccc1C21CO1 (configuration not stated)
91 to 93 °C	CCCCCCCCCCCSCCCN=C=O
176 to 178 °C	CCc1c(C)[nH]c(=O)n(-c2cc(C(=O)OC(C)C)c(Cl)cc2F)c1=O
205 to 207 °C	CCOC(=O)C1=CN(CC)c2cc(C#N)c(F)cc2C1
165 to 167 °C	Clc1ccc(Cc2c(Cl)nc3ncnn3c2Cl)cc1
90 to 92 °C	CCc1n[nH]c(CC)c1CCOCCOc1ccc(OC)cc1Cl
141 to 143 °C	CNCc1cc(Oc2ccc3c(C(=O)Nc4cccc(C(F)(F)F)c4)cccc3c2)ncn1
73 to 74 °C	C#CCC(CCc1ccccc1)(C(N)=S)c1cccnc1 (configuration not stated)
132 to 134 °C	CC(C)CNn1c(=O)c(Oc2ccc(F)cc2F)cc2cnc(SCc3ccccc3)nc21
185 to 187 °C	COc1cnc(-c2cccn3nc(Nc4ccc(C5CCN(CC(=O)N(C)C)CC5)cc4)nc23)cn1
107 to 108 °C	COc1ccc2cc(C(O)=CC(C)=O)cc(F)c2c1

melting point	SMILES
320 to 322 °C	O=C1CC(c2cccc(OCc3ccccc3)c2)=Nc2ccc(N3CCCC3)cc21
< 30 °C	Cc1ccc(S(=O)(=O)OC2CCCC2)cc1
165 to 168 °C	CCCOc1ccc2c(c1)[C@@H](c1ccc(OC)cc1OCCO)[C@@H](C(=O)OC)[C@H]2c1ccc2c(c1)OCO2 (racemic)
162 to 163 °C	CCCc1cc(-c2noc3cc(O)ccc23)c(CCC)cc1O
135 to 137 °C	CC1CC(=O)NN=C1c1ccc(CCCCN)cc1 (configuration not stated)
171 to 172 °C	Cn1ncnc1COc1nc2c(cc1-c1ccsc1)nnn2-c1c(F)cccc1F
115 to 116 °C	COC(=O)c1ccc(=O)n(CCCNC(=O)c2ccccn2)c1
66.6 to 76.6 °C	Cc1c2c(nn1C)N(c1ccc(Cl)cc1Cl)CCC2
166 to 168 °C	CCCNC(=O)NCc1ccc2c(c1)C(=O)N(C1CCC(=O)NC1=O)C2=O (configuration not stated)
129 °C	O=C(N1CCCC1)C1(Cc2ccccc2)CCN(Cc2ccccc2)CC1
103 to 104 °C	CC(C)[C@H](NC(=O)OCc1ccccc1)[C@H](O)C(F)(F)F
70 to 71 °C	Cc1ccccc1C(=O)Nc1cccc(C(C)C)c1
72 to 76 °C	C=CCOCc1ccc(-c2ncccc2S(=O)(=O)Nc2ncc(C)nc2OC)cc1
78 to 79 °C	CCCCc1nnc(SCc2ccc(OC)cc2)n1Cc1ccc(OC(C(=O)O)c2ccccc2)cc1 (configuration not stated)
174 to 175 °C	COC(=O)c1cccc(N)c1S
171 to 173 °C	CNC(=O)c1ccc(-c2ccc3nnn(C(C)(C)c4ccc5ncccc5c4)c3n2)cc1F
206 to 208 °C	COc1ccc(N2CCOCC2)cc1NC(=S)C(=O)Nc1ccc(F)cc1

The remaining lines, values behind:

SMILES	melting point
Cc1ccc(C(=O)Cn2c3c(sc2=O)CCCC3)cc1	108 to 110 °C
CCN1CCc2cc(OC)c(OC)cc2C12CCC(C=O)CC2C1c2cc(OC)c(OC)cc2CCN1C (configuration not stated)	137 to 139 °C
COC(=O)c1nc(N(C)Cc2ccccc2)ccc1Oc1nc(OC)cc(OC)n1	73 to 75 °C
CC(C)C1=CC(C(C)C)(S(=O)(=O)n2c(C3(O)C=CC(=O)C=C3)cc3ccccc32)CC(C(C)C)=C1 (configuration not stated)	55 to 57 °C
N#Cc1cc(C(=O)NNC(=O)c2occc2-c2ccccc2)ccc1O	216 to 217 °C
Cc1ccc([N+](=O)[O-])c(C=C(C(=O)O)C(=O)O)c1	180 to 182 °C
C#Cc1cc(C)c(Oc2ccc(N)c(Nc3ccc(C#N)cc3)n2)c(C)c1	79 to 82 °C
Cn1c2c(cnc3ccccc32)c(=O)n1-c1ccc(Cl)cc1	158 to 161 °C
CCOC(=O)CC[C@H](NC(=O)CCc1cc(Cl)ccc1C(=O)CCCNC(C)=O)C(=O)OCC	109 to 111 °C
COCCCNc1ncnc2c1sc1nc(N3CCOCC3)c3c(c12)CC(C)(C)OC3	178 to 179 °C
Cc1cccc(-c2nc3cccnn3c2-c2ccnc(NCc3ccco3)c2)c1	150 to 151 °C
CCCCOCCOc1ccc(-c2ccc3c(c2)C=C(C(=O)Nc2ccc(S(=O)CCn4cnnc4)cc2)CCN3CC(C)C)cc1 (configuration not stated)	168 to 170 °C
O=Cc1ccc2c(c1)N(C1CCN(CCc3ccccc3F)CC1)CC2	86 to 87 °C
CN(C)Cc1nnc2n1-c1ccccc1C(c1ccccc1Cl)=NC2	143 to 145 °C
Cc1ccc(-c2cccc3c2OC(COS(=O)(=O)c2ccc(C)cc2)C3)cc1 (configuration not stated)	145 to 147 °C
O=C1COC2(CCN(CCc3ccccc3)CC2)CN1	140 to 141 °C
O=C(Nc1c(C(O)(C(F)(F)F)C(F)(F)F)ccc2ccccc12)c1cnc2ccccc2n1	> 240 °C
CC(Cl)CC1Oc2ncccc2C(=S)NC1C (configuration not stated)	95 to 97 °C
O=C(ON1C(=O)CCC1=O)c1ccccn1	174 to 175 °C

SMILES	melting point
CCOC(=O)Cn1c2c([nH]c(=O)c1=O)CCC1=C2C=C(N)CC1	238 °C
CN(C)CCCCCCNc1nc2cc(Cl)c(Cl)cc2nc1-c1ccccn1	88 to 90 °C
Clc1ccc(C(Cl)(Cl)Cl)cn1	51 to 54 °C
COC(=O)c1nc(Cl)c(F)c(N)c1/C=C/Cl	128 to 130 °C
Nc1ccc(C2CCC(=O)CC2)cc1	127 to 128 °C
COc1ccc(-c2cc(=O)c3ccc(OCC4CO4)cc3o2)cc1OC (configuration not stated)	148 to 149 °C
CN1Cc2c(-c3noc(CCl)n3)ncn2-c2ccccc2C1=O	208 to 209 °C
CC(C)(C)[Si](C)(C)Oc1ccc2[nH]nc(N3C(=O)c4ccccc4C3=O)c2c1	225 to 228 °C
CCc1cccc2c(C(N)CO)c[nH]c12 (configuration not stated)	84 to 86 °C
CCN(CC1CC1)c1c([N+](=O)[O-])cc(C(F)(F)F)c(N)c1[N+](=O)[O-]	99 to 100 °C
O=c1[nH]c(N2CCNC(CO)C2)cc2c(Br)cccc12 (configuration not stated)	> 230 °C
CC(=O)Nc1ccc(F)c(-c2ccccn2)c1F	132 to 133 °C
CCCCCCCCc1ccc(-c2cnc(-c3ccc(O)cc3F)nc2)cc1	167 °C
Cc1cc(C)n(-c2nc(Nc3ccccc3C)c3ccccc3n2)n1	240 to 244 °C
CCOC(=O)c1[nH]cc(-c2ccc(F)cc2)c1C(C)C	94 to 97 °C
O=C(Nc1ccccn1)c1nnc2ccccc2c1O	341 to 343 °C
COC1(c2cccc(OCc3ccc(-n4ccnc4-c4ccccc4)cc3)c2)CCOCC1	117 to 118 °C
CN1C(=O)[C@H](NC(=O)CCc2ccc(Cl)cc2Cl)N=C(c2ccccc2N)c2cc(N)ccc21	188 to 189 °C
CNC(=S)N1CCC(c2nn(-c3ccc(F)cc3)c3ccccc23)CC1	179 to 181 °C
